Measurements from patent US4608365A, “Treatment of neurologic functions” (priority 1984, dated 1986).

Assays:
[1] = test system: non-ALS patients; test: Intravenous and subcutaneous TRH in non-ALS patients with lower or upper motor neuron abnormality (Example VII); assay type: in vivo, human; settings: i.v. and s.c., seven non-ALS patients
Text: The dosage, benefits and side-effects were essentially similar to those described in Examples II, V and VI.

[2] = test system: ALS patients; settings: human, in vivo
Description: Five ALS patients (men, women, duration of disease one, one, three and one-half, four and three years, respectively) were given TRH as a continuous intravenous infusion. […] For about one-fifth of the days, the patients were given saline placebo.
It should be noted that the TRH administered in Example I was infused at a rate of up to 200 mg. over a twenty-four hour period. In terms of presence in the body at any one time, this amounted to an infusion rate of about 0.14 mg/minute ([…] body weight based upon the average patient weight of 70 kg). Accordingly, and in view of the significant results shown in Examples II-VIII, it appears that an elevated initial dose and consequently a blood level peak, providing a pulse-effect, is required each time TRH is given. Specifically, in Example IV, intravenous infusion at one milligram per minute (over seven times the infusion rate in Example I) produced an improvement of strength in several muscle functions. […] In Example IV, an acute increase in strength occurred at 4.7 mg/minute intravenously.
There were several control aspects of the TRH studies. […] The patients given subcutaneous TRH had treatments interspersed with saline placebo injections. […] The time course of response was not known before the study and, in fact, it was expected that the onset would be later and the duration of response longer than was actually found. […]

[3] = test system: ALS patients; test: Transient autorefractory effect, intravenous TRH in ALS patients; assay type: in vivo, human
Description: To analyze this phenomenon, four ALS patients were given six-minute intravenous pulses of […] of TRH at ten to twenty minute intervals. Each of the first one to five "priming doses" produced or, sustained dramatically-increased strength in responsive muscles. Subsequent identical pulses precipitated an equally dramatic interruption within 18-30 seconds causing rapid loss of all improvement, back to baseline strength or below, i.e., "autorefractoriness." Some weakness of clinically normal limb muscles also sometimes occurred. Eleven autorefractory states of the four patients lasted 12-100 minutes (median 68 minutes) after initial administration of TRH, until spontaneous recovery re-achieved maximal strength benefit. During recovery, strength fluctuated. […] When the autorefractory state first developed, with loss of strength to baseline, increasing the infusion to 1.5 mg/minute rapidly overcame the "block" within one minute, associated with increased strength. Within another minute, complete autorefractoriness reappeared. Raising the rate to 2 mg/minute again reversed this blockage, with strength increased to maximum in thirty seconds, but autorefractoriness reappeared in 1.5 minutes. […] Strength fluctuated between complete blockage and partial reversal for the next 71 minutes until the autorefractoriness fully reversed itself at 81 minutes.

[4] = test system: ALS patients; assay type: in vivo, human
Description: Nine fasting ALS patients (seven men, and two women; duration of disease, two, three, five-sixths of a year, five-sixths of a year, two and a half, four, one, one and four years, respectively) were given intravenous TRH at rates of 0.5-8 mg/minute, total 500 mg during two to five hours in one day, for one or two days. Due to the fact that the effects during the second day resembled those on the first day in the first two patients (men) and because supplies of TRH were limited, […] were treated for one day only. Before and throughout TRH administration, motor functions were repeatedly examined, the tests being selected according to the specific clinical involvement in each patient. Testing in all patients was videotaped. […] For example, muscles (such as biceps, triceps, deltoid, iliopsoas, or peroneal) that could be overcome easily by one finger before TRH administration became completely resistant to the full force of the examiner's hand (i.e., became normal or virtually normal). In one person, thumb abduction and finger-thumb pincer movement, easily overcome before the infusion of TRH, became normal. […] Speech clarity and volume improved. Spasticity of the legs lessened, as evidenced by easier, more rapid and "looser" bicycling-like movement, heel-shin movement and heel-knee tapping of the legs, as well as more agile walking.
As an extension of the Example III and IV studies, a total of twenty-three patients (including those of Examples II and IV) were given 156 intravenous dose-days total.
There were several control aspects of the TRH studies. […] The patients given subcutaneous TRH had treatments interspersed with saline placebo injections. […] The time course of response was not known before the study and, in fact, it was expected that the onset would be later and the duration of response longer than was actually found. Different patients responded to different doses of TRH, and the sex difference in response (woman apparently less responsive) was not expected. […] There were three observers, one unaware of the infusion status. In addition, clinical examinations of all patients of Examples III-VII were videotaped and later reviewed by several observers.

[5] = test system: amyotrophic lateral sclerosis patients; test: Effect of TRH on chronic joint pain in ALS patients (Example VIII); assay type: in vivo, human; settings: after TRH treatment
Text: In untreated amyotrophic lateral sclerosis patients, especially in more advanced stages of the disease, aching of joints is common, (e.g., in a "frozen shoulder" or painful hip). Often, the pain is so severe as to impair sleep. […] The reduction of pain was clearly appreciated when the patients were awake, and it also allowed much more restful nights without their being awakened frequently by pain. […] A logical extension of this observation is that pain of many causes, including other forms of arthritic pain, might be lessened by TRH, or an analog, active derivative or analog of an active derivative of TRH.

[6] = eleven autorefractory states of four patients

NC(=O)[C@@H]1CCCN1C(=O)[C@H](Cc1cnc[nH]1)NC(=O)[C@@H]1CCC(=O)N1 [TRH, L-pyroglutamyl-L-histidyl-L-prolinamide]
benefit [1]: markedly benefited | transient rise in serum aminotransferases [2]: has not been found | onset of waning-waxing of TRH-increased lower motor neuron strength ([3]; continuous i.v. 1-8 mg/minute, all patients): as early as three to thirty minutes | duration of autorefractory states [3, 6]: 12 to 100 min | median duration of autorefractory states [3, 6]: 68 min | partial reversal of autorefractoriness after TRH was stopped ([3]; one ALS patient): partially reversed at ten minutes | time to full reversal of autorefractoriness after TRH was stopped ([3]; one ALS patient): 81 min | strength ([3]; one ALS patient, 1 mg/minute continuous i.v.): markedly increased their strength | strength after raising the rate during autorefractoriness ([3]; one ALS patient, 2.5 mg/minute for nine minutes): failed to increase strength | time to interruption (loss of all improvement) after subsequent identical pulses ([3]; six-minute i.v. pulses of 4.17 mg/minute at ten to twenty minute intervals, four ALS patients): 18 to 30 s | intravenous rate at which striking improvement was shown ([4]; Examples II and III (summary)): 2 mg/min | minimum intravenous infusion rate per body weight ([4]; based on average patient weight of 70 kilograms): ≥ 14.3 μg/minute/kg of body weight | benefit and side-effects in the two women ([4]; i.v. 0.5-8 mg/minute): much less benefit and many fewer side-effects than the men | quantitative response of women relative to men ([4]; i.v. 0.5-8 mg/minute): resembled those of men on one-half to one-fourth of the TRH dosage | ankle clonus ([4]; i.v. 2-8 mg/minute): decreased or disappeared | brisk tendon reflexes ([4]; i.v. 2-8 mg/minute): diminished not at all or only slightly | extensor plantar (Babinski) responses ([4]; i.v. 2-8 mg/minute): improved, becoming neutral or normal flexor | fasciculations ([4]; i.v. 2-8 mg/minute): appeared to be unchanged | spasticity of the legs ([4]; i.v. 2-8 mg/minute): lessened | speech clarity and volume ([4]; i.v. 2-8 mg/minute): improved | vital capacity ([4]; i.v. 2-8 mg/minute): increased, by as much as one liter | residual improvement after the end of the infusion ([4]; i.v., total 500 mg): some slight improvement still evident twenty hours after the end of the infusion | time improvements were sustained after the infusion ([4]; i.v., total 500 mg during two to five hours): one-half to one hour afterwards | improvement of muscle weakness and spasticity ([4]; men, i.v. 2-8 mg/minute, in some areas of involvement): striking improvement | duration of full benefit after intravenous infusions ([4]; summary): up to one hour | arthritic (joint) pain [5]: striking improvement | duration of pain improvement [5]: as long as one to four days
